# Source: the supplement of paper PMC10307832
# Assays:
# Assay in all cases: relative viability (nuclei count vs DMSO), 5 days (fraction); higher = more cells survive
# [1] = compound: CN(C)CC1=CC(=CC=C1)N=C(C2=CC=CC=C2)C3=C(NC4=C3C=CC(=C4)C(=O)N(C)C)O + CCNC(=O)c1noc(-c2cc(C(C)C)c(O)cc2O)c1-c1ccc(CN2CCOCC2)cc1 [Luminespib] (partner 0.01 µM)
# Method in brief: (§1)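 Relative viability was taken as the ratio of nuclei in treated wells to nuclei in vehicle wells. Lung cancer cell lines in 1536-well plates received compounds by pin tool one day after seeding, either one drug alone or a fixed anchor-drug dose plus five library-drug doses (not always all listed) in √10 steps. Nuclei were counted on 4× images after 5 days of treatment, and values are medians of duplicate plates.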
# [2] = compound: CN(C)CC1=CC(=CC=C1)N=C(C2=CC=CC=C2)C3=C(NC4=C3C=CC(=C4)C(=O)N(C)C)O + Cc1cc(Nc2cc(N3CCN(C)CC3)nc(Sc3ccc(NC(=O)C4CC4)cc3)n2)n[nH]1 [Tozasertib] (partner 0.1 µM)
# Method in brief: as §1
# [3] = compound: CN(C)CC1=CC(=CC=C1)N=C(C2=CC=CC=C2)C3=C(NC4=C3C=CC(=C4)C(=O)N(C)C)O + Cc1nc(Nc2ncc(C(=O)Nc3c(C)cccc3Cl)s2)cc(N2CCN(CCO)CC2)n1 [Dasatinib] (partner 0.075 µM)
# Method in brief: as §1
# [4] = compound: CN(C)CC1=CC(=CC=C1)N=C(C2=CC=CC=C2)C3=C(NC4=C3C=CC(=C4)C(=O)N(C)C)O + Cc1nc(NC(=O)N2CCC[C@H]2C(N)=O)sc1-c1ccnc(C(C)(C)C(F)(F)F)c1 [Alpelisib] (partner 2 µM)
# Method in brief: as §1
Cell Line,relative viability ([1]; first compound 0.08 µM),relative viability ([1]; first compound 0.253 µM),relative viability ([1]; first compound 0.8 µM),relative viability ([1]; first compound 2.53 µM),relative viability ([1]; first compound 8 µM),relative viability ([2]; first compound 0.08 µM),relative viability ([2]; first compound 0.253 µM),relative viability ([2]; first compound 0.8 µM),relative viability ([2]; first compound 2.53 µM),relative viability ([2]; first compound 8 µM),relative viability ([3]; first compound 0.08 µM),relative viability ([3]; first compound 0.253 µM),relative viability ([3]; first compound 0.8 µM),relative viability ([3]; first compound 2.53 µM),relative viability ([3]; first compound 8 µM),relative viability ([4]; first compound 0.08 µM),relative viability ([4]; first compound 0.253 µM),relative viability ([4]; first compound 0.8 µM),relative viability ([4]; first compound 2.53 µM),relative viability ([4]; first compound 8 µM)
201T,1.06,0.993,1.01,1.05,0.802,0.937,0.97,0.857,0.904,0.809,0.544,0.603,0.575,0.54,0.493,1,0.968,0.977,0.962,0.955
A-427,0.995,0.929,1,0.667,0.756,0.22,0.188,0.182,0.213,0.147,0.741,0.698,0.653,0.791,0.679,1.04,1.04,1.09,1.03,1.07
ABC-1,0.609,0.618,0.422,0.445,0.552,0.198,0.173,0.15,0.179,0.171,0.619,0.617,0.557,0.605,0.577,1.14,1.03,0.957,0.896,1.09
BEN,0.338,0.269,0.312,0.212,0.437,0.619,0.493,0.5,0.426,0.538,0.307,0.284,0.396,0.487,0.336,1.02,0.947,1.08,0.928,0.82
CAL-12T,0.27,0.451,0.877,0.542,0.376,0.375,0.342,0.311,0.308,0.292,0.488,0.48,0.421,0.363,0.304,1.19,1.29,1.18,1.11,1.15
COR-L23,0.752,0.787,0.791,0.523,0.665,0.185,0.226,0.201,0.205,0.154,0.54,0.469,0.596,0.423,0.566,0.796,0.757,0.818,0.632,0.575
COR-L 105,0.865,0.688,0.567,1.23,0.622,0.372,0.369,0.336,0.346,0.361,0.394,0.369,0.307,0.314,0.328,0.844,0.892,1.01,0.813,0.808
Calu-6,–,–,–,–,–,–,–,–,–,–,–,–,–,–,–,1.05,1.11,1.06,0.971,0.93
ChaGo-K-1,0.688,0.612,0.668,0.529,0.598,0.235,0.25,0.217,0.22,0.213,0.579,0.61,0.601,0.567,0.582,–,–,–,–,–
EBC-1,–,–,–,–,–,–,–,–,–,–,–,–,–,–,–,0.958,0.891,1.06,0.917,0.816
EKVX,0.864,0.921,1,0.927,1.06,0.445,0.387,0.459,0.378,0.323,0.523,0.465,0.56,0.535,0.573,0.878,0.847,0.843,0.886,0.879
EMC-BAC-2,1.2,1.28,1.15,1.16,1.11,0.297,0.283,0.383,0.258,0.267,0.358,0.388,0.308,0.348,0.318,0.763,0.743,0.71,0.738,0.67
EPLC-272H,0.309,0.363,0.239,0.308,0.211,0.351,0.392,0.303,0.278,0.272,0.419,0.334,0.304,0.382,0.357,0.935,0.872,0.825,1.06,0.856
H3255,0.899,0.894,0.751,0.836,0.998,0.528,0.575,0.65,0.71,0.484,0.342,0.337,0.316,0.381,0.339,0.781,0.754,0.635,0.635,0.84
HARA,0.867,0.742,0.763,0.747,0.656,0.11,0.125,0.0998,0.108,0.0768,0.227,0.306,0.231,0.258,0.241,0.79,0.824,0.715,0.788,0.713
HCC-15,0.304,0.205,0.181,0.278,0.279,0.424,0.387,0.39,0.365,0.453,0.613,0.602,0.652,0.643,0.662,0.947,0.802,0.927,0.937,0.954
HCC-44,1.15,0.761,1.03,0.917,0.991,1.08,0.836,1.03,0.927,0.862,–,–,–,–,–,0.787,0.736,0.768,0.766,0.77
HCC-78,–,–,–,–,–,0.507,0.426,0.403,0.383,0.364,0.329,0.521,0.353,0.366,0.405,0.364,0.324,0.356,0.363,0.318
